Literature values as cited in US20130259998A1, “FOODSTUFF PRESERVING COMPOSITION AND USE THEREOF” (NIACET B.V., priority 2012, published 2013).

Conditions: ingredient as such

Structure (SMILES)	pH as such
CC(=O)O.CC(=O)O.NC(=N\CCCCCC/N=C(N)/N=C(\N)Nc1ccc(Cl)cc1)/N=C(\N)Nc1ccc(Cl)cc1 [diacetate]	4.5-5.0
CC(=O)[O-].[Na+] [sodium acetate]	8.9
CC(O)C(=O)[O-].[Na+] (stereo not drawn) [sodium lactate]	6.3
